# Reference: ChEMBL document CHEMBL3286334, “Identification of tetrapeptides from a mixture based positional scanning library that can restore nM full agonist function of the L106P, I69T, I102S, A219V, C271Y, and C271R human melanocortin-4 polymorphic receptors (hMC4Rs)” (J Med Chem, 2014)
# pEC50: −log10 of the molar value. Where a SMILES comes first, the peptide text is derived from it. [ ]: non-standard residue; d: D form. dPhe(4-I) = N[C@H](Cc1ccc(I)cc1)C(=O)O; Tic = O=C(O)[C@@H]1Cc2ccccc2CN1
# Molecular target: Melanocortin receptor 4 (Homo sapiens, UniProt P32245)
# Test: Agonist activity at wild type human melanocortin-4 receptor expressed in HEK293 cells co-transfected with CRE/beta-galactosidase reporter gene assessed as stimulatory response after 6 hrs
# Format: functional, cell-based
# Chain of Melanocortin receptor 4 (Homo sapiens, UniProt P32245) (P32245 whole entry): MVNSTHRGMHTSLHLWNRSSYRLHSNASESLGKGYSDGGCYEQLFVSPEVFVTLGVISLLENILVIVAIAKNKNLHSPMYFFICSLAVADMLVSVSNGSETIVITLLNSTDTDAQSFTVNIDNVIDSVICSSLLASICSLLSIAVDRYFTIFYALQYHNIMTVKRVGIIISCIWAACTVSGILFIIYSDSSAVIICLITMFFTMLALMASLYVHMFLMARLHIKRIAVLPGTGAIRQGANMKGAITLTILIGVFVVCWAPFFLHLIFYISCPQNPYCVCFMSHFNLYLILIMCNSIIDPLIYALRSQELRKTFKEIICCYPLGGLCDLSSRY
row,SMILES,pEC50
1,CC(=O)N[C@@H](Cc1cnc[nH]1)C(=O)N[C@H](Cc1ccccc1)C(=O)N[C@@H](CCCNC(=N)N)C(=O)N1Cc2ccccc2CC1C(N)=O (stereo not given in full),< 5.00
2,CC(=O)N1Cc2ccccc2C[C@H]1C(=O)N[C@H](Cc1ccc(Cl)cc1)C(=O)N[C@@H](CCCNC(=N)N)C(=O)N[C@H](Cc1ccc([N+](=O)[O-])cc1)C(N)=O,7.40
3,CC(=O)N1Cc2ccccc2C[C@H]1C(=O)N[C@H](Cc1ccc(Cl)cc1)C(=O)N[C@@H](CCCNC(=N)N)C(=O)N1Cc2ccccc2C[C@H]1C(N)=O,6.02
4,CC(=O)N[C@@H](CCCNC(=N)N)C(=O)N[C@H](Cc1ccc(Cl)cc1)C(=O)N[C@@H](CCCNC(=N)N)C(=O)N1Cc2ccccc2C[C@H]1C(N)=O,6.96
5,CC(=O)N[C@@H](CCCNC(=N)N)C(=O)N[C@H](Cc1ccc(I)cc1)C(=O)N[C@@H](CCCNC(=N)N)C(=O)N1Cc2ccccc2C[C@H]1C(N)=O,7.24
6,CC(=O)N1Cc2ccccc2C[C@H]1C(=O)N[C@H](Cc1ccc(I)cc1)C(=O)N[C@@H](CCCNC(=N)N)C(=O)N[C@H](Cc1ccc([N+](=O)[O-])cc1)C(N)=O,7.70
7,CC(=O)N[C@H](CCCNC(=N)N)C(=O)N[C@H](Cc1ccccc1)C(=O)N[C@@H](CCCNC(=N)N)C(=O)N[C@@H](Cc1c[nH]c2ccccc12)C(N)=O,7.40
8,CC(=O)N[C@@H](CCCNC(=N)N)C(=O)N[C@H](Cc1ccccc1)C(=O)N[C@@H](CCCNC(=N)N)C(=O)N[C@@H](Cc1c[nH]c2ccccc12)C(N)=O,8.97
9,CC(=O)N1Cc2ccccc2C[C@H]1C(=O)N[C@H](Cc1ccc(I)cc1)C(=O)N[C@@H](CCCNC(=N)N)C(=O)N1Cc2ccccc2C[C@H]1C(N)=O,6.55
10,CC(=O)N[C@@H](Cc1c[nH]cn1)C(=O)N[C@H](Cc1ccc(Cl)cc1)C(=O)N1Cc2ccccc2C[C@H]1C(=O)N1Cc2ccccc2C[C@H]1C(N)=O,6.80
11,CC(=O)N[C@@H](Cc1c[nH]cn1)C(=O)N[C@H](Cc1ccc(Cl)cc1)C(=O)N[C@@H](CCCNC(=N)N)C(=O)N1Cc2ccccc2C[C@H]1C(N)=O,6.96

# Second part, the compound after the results:
row,pEC50,SMILES
1,8.21,CC(=O)N[C@@H](Cc1ccc(O)cc1)C(=O)N[C@H](Cc1ccccc1)C(=O)N[C@@H](CCCNC(=N)N)C(=O)N[C@@H](Cc1c[nH]c2ccccc12)C(N)=O (Ac-Y[dF]RW-NH2)
2,7.40,CC(=O)N[C@@H](Cc1cnc[nH]1)C(=O)N[C@H](Cc1ccccc1)C(=O)N[C@@H](CCCCN)C(=O)N[C@@H](Cc1c[nH]c2ccccc12)C(N)=O
3,6.71,CC(=O)N[C@@H](Cc1cnc[nH]1)C(=O)N[C@H](Cc1ccccc1)C(=O)N[C@@H](CCCNC(=N)N)C(=O)N[C@@H](Cc1ccc([N+](=O)[O-])cc1)C(N)=O
4,7.49,CC(=O)N[C@@H](Cc1c[nH]c2ccccc12)C(=O)N[C@H](Cc1ccccc1)C(=O)N[C@@H](CCCN=C(N)N)C(=O)N[C@@H](Cc1c[nH]c2ccccc12)C(N)=O (Ac-W[dF]RW-NH2)
5,7.82,CC(=O)N[C@@H](Cc1cnc[nH]1)C(=O)N[C@H](Cc1ccc(Cl)cc1)C(=O)N1Cc2ccccc2CC1C(=O)N[C@@H](Cc1ccc(I)cc1)C(N)=O (stereo not given in full)
6,8.13,CC(=O)N[C@@H](Cc1cnc[nH]1)C(=O)N[C@H](Cc1ccc(I)cc1)C(=O)N1Cc2ccccc2CC1C(=O)N[C@@H](Cc1ccc(I)cc1)C(N)=O (stereo not given in full)
7,7.05,CC(=O)N[C@@H](Cc1c[nH]cn1)C(=O)N[C@H](Cc1ccc(I)cc1)C(=O)N[C@@H](CCCNC(=N)N)C(=O)N1Cc2ccccc2C[C@H]1C(N)=O (Ac-H[dPhe(4-I)]R[Tic]-NH2)
8,6.92,CC(=O)N1Cc2ccccc2CC1C(=O)N[C@H](Cc1ccc(Cl)cc1)C(=O)N1Cc2ccccc2CC1C(=O)N[C@@H](Cc1ccc(I)cc1)C(N)=O (stereo not given in full)
9,8.37,CC(=O)N1Cc2ccccc2CC1C(=O)N[C@H](Cc1ccc(I)cc1)C(=O)N[C@@H](CCCNC(=N)N)C(=O)N[C@@H](Cc1ccc(I)cc1)C(N)=O (stereo not given in full)

# Molecular target: Melanocortin receptor 4 (Homo sapiens, UniProt P32245, L106P)
# Test: Agonist activity at human melanocortin-4 receptor L106P mutant expressed in HEK293 cells co-transfected with CRE/beta-galactosidase reporter gene assessed as stimulatory response after 6 hrs
# Format: functional, cell-based
# Chain of Melanocortin receptor 4 (Homo sapiens, UniProt P32245, L106P) (P32245 whole entry L106P): as the sequence (P32245 whole entry) above, with L106P counted along it
row,SMILES,pEC50
1,CC(=O)N[C@@H](Cc1cnc[nH]1)C(=O)N[C@H](Cc1ccccc1)C(=O)N[C@@H](CCCNC(=N)N)C(=O)N1Cc2ccccc2CC1C(N)=O (stereo not given in full),< 4.00
2,CC(=O)N1Cc2ccccc2C[C@H]1C(=O)N[C@H](Cc1ccc(Cl)cc1)C(=O)N[C@@H](CCCNC(=N)N)C(=O)N[C@H](Cc1ccc([N+](=O)[O-])cc1)C(N)=O,6.15
3,CC(=O)N1Cc2ccccc2C[C@H]1C(=O)N[C@H](Cc1ccc(Cl)cc1)C(=O)N[C@@H](CCCNC(=N)N)C(=O)N1Cc2ccccc2C[C@H]1C(N)=O,4.81
4,CC(=O)N[C@@H](CCCNC(=N)N)C(=O)N[C@H](Cc1ccc(Cl)cc1)C(=O)N[C@@H](CCCNC(=N)N)C(=O)N1Cc2ccccc2C[C@H]1C(N)=O,5.57
5,CC(=O)N[C@@H](CCCNC(=N)N)C(=O)N[C@H](Cc1ccc(I)cc1)C(=O)N[C@@H](CCCNC(=N)N)C(=O)N1Cc2ccccc2C[C@H]1C(N)=O,5.50
6,CC(=O)N1Cc2ccccc2C[C@H]1C(=O)N[C@H](Cc1ccc(I)cc1)C(=O)N[C@@H](CCCNC(=N)N)C(=O)N[C@H](Cc1ccc([N+](=O)[O-])cc1)C(N)=O,6.18
7,CC(=O)N[C@H](CCCNC(=N)N)C(=O)N[C@H](Cc1ccccc1)C(=O)N[C@@H](CCCNC(=N)N)C(=O)N[C@@H](Cc1c[nH]c2ccccc12)C(N)=O,5.91
8,CC(=O)N[C@@H](CCCNC(=N)N)C(=O)N[C@H](Cc1ccccc1)C(=O)N[C@@H](CCCNC(=N)N)C(=O)N[C@@H](Cc1c[nH]c2ccccc12)C(N)=O,6.91
9,CC(=O)N1Cc2ccccc2C[C@H]1C(=O)N[C@H](Cc1ccc(I)cc1)C(=O)N[C@@H](CCCNC(=N)N)C(=O)N1Cc2ccccc2C[C@H]1C(N)=O,5.65
10,CC(=O)N[C@@H](Cc1c[nH]cn1)C(=O)N[C@H](Cc1ccc(Cl)cc1)C(=O)N1Cc2ccccc2C[C@H]1C(=O)N1Cc2ccccc2C[C@H]1C(N)=O,4.94
11,CC(=O)N[C@@H](Cc1c[nH]cn1)C(=O)N[C@H](Cc1ccc(Cl)cc1)C(=O)N[C@@H](CCCNC(=N)N)C(=O)N1Cc2ccccc2C[C@H]1C(N)=O,5.11

# Continued, values first:
row,pEC50,SMILES
1,6.27,CC(=O)N[C@@H](Cc1ccc(O)cc1)C(=O)N[C@H](Cc1ccccc1)C(=O)N[C@@H](CCCNC(=N)N)C(=O)N[C@@H](Cc1c[nH]c2ccccc12)C(N)=O (Ac-Y[dF]RW-NH2)
2,5.20,CC(=O)N[C@@H](Cc1cnc[nH]1)C(=O)N[C@H](Cc1ccccc1)C(=O)N[C@@H](CCCCN)C(=O)N[C@@H](Cc1c[nH]c2ccccc12)C(N)=O
3,4.64,CC(=O)N[C@@H](Cc1cnc[nH]1)C(=O)N[C@H](Cc1ccccc1)C(=O)N[C@@H](CCCNC(=N)N)C(=O)N[C@@H](Cc1ccc([N+](=O)[O-])cc1)C(N)=O
4,6.77,CC(=O)N[C@@H](Cc1c[nH]c2ccccc12)C(=O)N[C@H](Cc1ccccc1)C(=O)N[C@@H](CCCN=C(N)N)C(=O)N[C@@H](Cc1c[nH]c2ccccc12)C(N)=O (Ac-W[dF]RW-NH2)
5,6.10,CC(=O)N[C@@H](Cc1cnc[nH]1)C(=O)N[C@H](Cc1ccc(Cl)cc1)C(=O)N1Cc2ccccc2CC1C(=O)N[C@@H](Cc1ccc(I)cc1)C(N)=O (stereo not given in full)
6,6.24,CC(=O)N[C@@H](Cc1cnc[nH]1)C(=O)N[C@H](Cc1ccc(I)cc1)C(=O)N1Cc2ccccc2CC1C(=O)N[C@@H](Cc1ccc(I)cc1)C(N)=O (stereo not given in full)
7,5.16,CC(=O)N[C@@H](Cc1c[nH]cn1)C(=O)N[C@H](Cc1ccc(I)cc1)C(=O)N[C@@H](CCCNC(=N)N)C(=O)N1Cc2ccccc2C[C@H]1C(N)=O (Ac-H[dPhe(4-I)]R[Tic]-NH2)
8,5.57,CC(=O)N1Cc2ccccc2CC1C(=O)N[C@H](Cc1ccc(Cl)cc1)C(=O)N1Cc2ccccc2CC1C(=O)N[C@@H](Cc1ccc(I)cc1)C(N)=O (stereo not given in full)
9,6.36,CC(=O)N1Cc2ccccc2CC1C(=O)N[C@H](Cc1ccc(I)cc1)C(=O)N[C@@H](CCCNC(=N)N)C(=O)N[C@@H](Cc1ccc(I)cc1)C(N)=O (stereo not given in full)
